Results on 5 compounds are retold here after US8388966B2, “Combination treatment of pancreatic cancer” (Cancer Advances, Inc., priority 2001, dated 2013).

The structures appear in SMILES notation. Structures can show the parent of a compound that is named as a salt.

Data set [1] deals with gastrin-sensitive mouse colon tumor, MC26. The conditions noted are these: xenograft mice bearing MC26; 25 days in control animals; cited from earlier work.
The subject of the next data set is pancreatic tumor. Nature of the data set: In vivo pancreatic tumor weight. Here is the method:
This second part of the example depicts cell proliferation of human pancreatic cell lines, PANC-1, BxPC3 and PAN-1 using a tetrazolium-based combined with anti-gastrin G17 antibodies induced by G17DT (10-500 μg/ml). The G17DT elicited antibodies are active against both serum-associated and tumor-secreted, proliferative forms of gastrin. The PAN-1 cell were administered at clinically reflective doses.
In vivo G17DT alone inhibited basal pancreatic tumor weight by 33% (p=0.016, ANOVA) compared to 38% for Gemcitabine (p=0.004, ANOVA). When combined the agents inhibited tumor weight by 55% which was significant from G17DT alone (p=0.025). Thus the immunological agent G17DT may promote the therapeutic efficacy of Gemcitabine.

The conditions of data set [2]: after IV administration; cited from earlier work.
The conditions of data set [3]: in vivo; cited from earlier work.
For data set [4] the following is noted: in vivo; cited from earlier work. The source holds these as a separate data set.
Data set [5] has as its system hormone-refractory prostate cancer. The conditions noted are these: 75 mg/m^2 every 21 days, cited from earlier work.
A further data set relates to AR42J cells. The following applies: 1 nM CI-988; gastrin 1 nM; after 96 hours of treatment; cited from earlier work.

In the case of `CCCN(CCC)C(=O)C(CCC(=O)O)NC(=O)c1ccccc1` (stereo not drawn) [proglumide], the survival in data set [1] is listed as 39 days.
For the compound `Nc1ccn([C@@H]2O[C@H](CO)[C@@H](O)C2(F)F)c(=O)n1` [Gemcitabine, 2′, 2′, difluorodeoxycytidine], in the data set on pancreatic tumor, the “inhibition of basal pancreatic tumor weight” value was 38%. Also, in data set [2], the “excreted unchanged as gemcitabine” value was 5%. Besides, in data set [3], the cumulative toxicity entry is given as “no evidence of cumulative toxicity” and the overall toxicity entry is “moderate”.
For `CCc1c2c(nc3ccc(OC(=O)N4CCC(N5CCCCC5)CC4)cc13)-c1cc3c(c(=O)n1C2)COC(=O)[C@]3(O)CC` [Irinotecan, (S)-4,1-diethyl-3,4,12,14-tetrahydro-4-hydroxy-3,14-dioxi-[H-pyrano[3′,4′:67]-indolizino[1,2-b]quinolin-9-yl-[1,4′-bipiperidine]-1′-carboxylate, monohydrochloride, trihydrate], in data set [4], the G1 adverse effects entry was “early and late diarrhea”; the “adverse effects in addition to the G1 manifestations” value was “myelosuppresion and hypersensitivity reactions”.
With `CC(=O)O[C@@]12CO[C@@H]1C[C@H](O)[C@@]1(C)C(=O)[C@H](O)C3=C(C)[C@@H](OC(=O)[C@H](O)[C@@H](NC(=O)OC(C)(C)C)c4ccccc4)C[C@@](O)([C@@H](OC(=O)c4ccccc4)[C@H]21)C3(C)C` [docetaxel], the median overall survival in data set [5] is on record as 27 months. Besides, the “patients with response (more than 40% PSA decline and more than 50% reduction of bi-dimensional cross-products)” value in data set [5] (including one complete response) was 17 of the 35. In addition, in data set [5] (range 2 to 24 months), the “median duration of responses” value is given as “nine”. In addition, the toxicity result in data set [5] (two deaths during the study) was “remained tolerable throughout the treatment”.
Turning to `C[C@](Cc1c[nH]c2ccccc12)(NC(=O)OC1[C@H]2C[C@@H]3C[C@@H](C[C@H]1C3)C2)C(=O)NC[C@H](NC(=O)CCC(=O)O)c1ccccc1` (stereo partly drawn) [CI-988], the “inhibition of proliferation of gastrin-stimulated AR42J cells” value in the data set on AR42J cells is “about 47%”.
